According to patent publication US7598241B2, “Carboxamide derivatives and their use as factor Xa inhibitors” (Merck Patent GmbH, priority 2003, dated 2009):
pIC50: −log10 of the molar value.

Legend:
factor Xa = factor Xa (Homo sapiens, UniProt P00742); test: Factor Xa inhibition (FXa-IC50); assay type: biochemical
Source text: The inhibition of factor Xa by the compounds according to the invention and the measurement of the anticoagulant and antithrombotic activity can be determined by conventional in-vitro or in-vivo methods. A suitable method is described, for example, by J. Hauptmann et al. in Thrombosis and Haemostasis 1990, 63, 220-223.
The inhibition of factor Xa can be measured, for example, by the method of T. Hara et al. in Thromb. Haemostas. 1994, 71, 314-319.

TF/FVIIa = TF/FVIIa (Homo sapiens, UniProt P08709); test: TF/FVIIa inhibition (TF/FVIIa-IC50); assay type: biochemical
Chain of TF/FVIIa (P08709 213-466 limits assumed): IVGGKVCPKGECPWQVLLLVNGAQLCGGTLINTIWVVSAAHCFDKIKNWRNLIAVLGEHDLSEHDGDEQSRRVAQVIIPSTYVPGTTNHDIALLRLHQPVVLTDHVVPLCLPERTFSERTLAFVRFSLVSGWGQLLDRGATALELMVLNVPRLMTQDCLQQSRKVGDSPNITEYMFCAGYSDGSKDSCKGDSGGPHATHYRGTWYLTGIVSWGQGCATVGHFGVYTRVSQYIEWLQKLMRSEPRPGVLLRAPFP
Chain of TF/FVIIa (P08709 61-212 partner limits assumed): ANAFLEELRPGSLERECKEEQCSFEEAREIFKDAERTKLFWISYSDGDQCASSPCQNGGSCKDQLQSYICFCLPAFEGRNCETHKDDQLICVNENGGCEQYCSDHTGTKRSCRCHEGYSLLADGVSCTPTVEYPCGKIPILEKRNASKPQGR
Chain of TF/FVIIa (P13726 33-295 partner): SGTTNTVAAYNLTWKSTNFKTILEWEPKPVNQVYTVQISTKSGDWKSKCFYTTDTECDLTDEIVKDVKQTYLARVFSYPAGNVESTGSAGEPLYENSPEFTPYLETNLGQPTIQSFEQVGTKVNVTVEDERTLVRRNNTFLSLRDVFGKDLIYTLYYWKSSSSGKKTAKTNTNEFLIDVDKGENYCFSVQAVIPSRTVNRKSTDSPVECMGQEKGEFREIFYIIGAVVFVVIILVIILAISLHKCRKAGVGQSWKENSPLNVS
Source text: Coagulation factor VIIa initiates the extrinsic part of the coagulation cascade after binding to tissue factor and contributes to the activation of factor X to give factor Xa. Inhibition of factor VIIa thus prevents the formation of factor Xa and thus subsequent thrombin formation. • The inhibition of factor VIIa by the compounds according to the invention and the measurement of the anticoagulant and antithrombotic activity can be determined by conventional in-vitro or in-vivo methods. A conventional method for the measurement of the inhibition of factor VIIa is described, for example, by H. F. Ronning et al. in Thrombosis Research 1996, 84, 73-81.

Chain of factor Xa (P00742 235-488 limits assumed): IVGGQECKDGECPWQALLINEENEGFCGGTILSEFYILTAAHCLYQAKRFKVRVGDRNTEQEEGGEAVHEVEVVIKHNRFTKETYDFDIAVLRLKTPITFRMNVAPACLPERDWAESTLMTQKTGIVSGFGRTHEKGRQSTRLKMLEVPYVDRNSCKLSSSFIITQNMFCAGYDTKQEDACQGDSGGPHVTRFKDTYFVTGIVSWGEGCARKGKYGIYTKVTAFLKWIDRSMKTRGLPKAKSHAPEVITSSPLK
Chain of factor Xa (P00742 41-179 partner limits assumed): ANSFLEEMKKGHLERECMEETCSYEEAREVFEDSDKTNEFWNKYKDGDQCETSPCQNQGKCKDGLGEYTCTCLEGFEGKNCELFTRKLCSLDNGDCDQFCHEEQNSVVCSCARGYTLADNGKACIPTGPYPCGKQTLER

Row | SMILES | pIC50 (factor Xa) | pIC50 (TF/FVIIa)
1 | CS(=O)(=O)CCC(NC(=O)Nc1ccc(Cl)cc1)C(=O)Nc1ccc(-n2ccccc2=O)cc1 (stereo not shown) [Compound 1A, 2-[3-(4-chlorophenyl)ureido]-N-[4-(2-oxo-2H-pyridin-1-yl)phenyl]-4-methanesulfonylbutyramide] | 7.55 | 7.55
2 | CS(=O)(=O)CCC(NC(=O)Nc1ccc(Cl)cc1)C(=O)Nc1ccc(-n2ccncc2=O)cc1 (stereo not shown) [Compound 1B, 2-[3-(4-chlorophenyl)ureido]-N-[4-(2-oxo-2H-pyrazin-1-yl)phenyl]-4-methanesulfonylbutyramide] | 7.38 | 7.37
3 | COP(=O)(C[C@@H](NC(=O)Nc1ccc(Cl)cc1)C(=O)Nc1ccc(N2CCOCC2=O)cc1)OC [Compound 1D, (S)-2-[3-(4-chlorophenyl)ureido]-N-[4-(3-oxomorpholin-4-yl)phenyl]-3-(dimethoxyphosphoryl)propionamide] | 7.07 | –
4 | CS(=O)(=O)C[C@H](NC(=O)Nc1ccc(Cl)cc1)C(=O)Nc1ccc(-n2ccccc2=O)cc1 [Compound 2A, (R)-2-[3-(4-chlorophenyl)ureido]-N-[4-(2-oxo-2H-pyridin-1-yl)phenyl]-3-methanesulfonylpropionamide] | 8.19 | 7.92
